Here are results for 30 compounds from ChEMBL document CHEMBL6178015, “Discovery of a Novel Serine-Targeting Covalent Inhibitor against HCES2A for Treating Drug-induced Diarrhea and Ulcerative Colitis” (J Med Chem, 2025).

A short description of test [1]: Inhibition of human CES2A using fluorescein diacetate as substrate preincubated for 3 mins followed by substrate addition and measured after 30 mins by fluorescence microplate reader.
In test [2] the test system is Mus musculus. Description: Antiinflammatory activity against DSS-induced ulcerative colitis mouse model assessed as epithelial damage at 700 mg/kg,IG administered once daily 7 days by AB-PAS staining based analysis. The class given is functional, organism-based. The following applies: time 7.0 day.
Test [3] relates to Mus musculus. Description: Antiinflammatory activity against DSS-induced ulcerative colitis mouse model assessed as goblet cell loss at 700 mg/kg,IG administered once daily 7 days by AB-PAS staining based analysis. The class given is functional, organism-based. The conditions noted are these: time 7.0 day.
The test system of test [4] is Mus musculus. Description: Antiinflammatory activity against DSS-induced ulcerative colitis mouse model assessed as restoration of colon histology at 700 mg/kg,IG administered once daily 7 days by AB-PAS staining based analysis. In kind it is functional, organism-based. The following applies: time 7.0 day.
A short description of test [5]: Inhibition of human CES1A using NLMe as substrate preincubated for 3 mins followed by substrate addition and measured after 20 mins by chemiluminescence analysis.
Test [6] is filed under the species Homo sapiens. The test can be described thus: Selectivity index, ratio of IC50 for inhibition of human CES1A to IC50 for inhibition of human CES2A.

pIC50: −log10 of the molar value. The source made the active and inactive calls. The calls are words filed in the database; no cut-off is given here.

For `CCCCCCC(=O)c1cccc2oc(-c3cc(C)ccc3NC(=O)OCc3ccccc3)cc12`, in test [1], the pIC50 (as a rule, −log10 of the IC50, conventionally taken in molar units) is 5.44.

For the compound `CCCC(=O)c1cccc2oc(-c3cc(C)ccc3N)cc12`, the pIC50 in test [1] is 5.51. Turning to `O=C(O)c1cc(/N=N/c2ccc(S(=O)(=O)Nc3ccccn3)cc2)ccc1O`, the outcome in test [2] and in test [3] was inactive. Also, the result in test [4] was Active.

Take `CCCCCCCCC(=O)c1cccc2oc(-c3cc(OC)ccc3OC(=O)N3CCOCC3)cc12`: the figures for the pIC50 in test [5] and in test [1] were 7.53 and 9.27, respectively. Moreover, in test [6], the Ratio IC50 turned out to be 53.9. For `CCCCCCC(=O)c1cccc2oc(-c3cc(C)ccc3NC(=O)OCC(C)C)cc12`, the pIC50 in test [5] is below 5.00; in test [1], 8.98. The Ratio IC50 in test [6] was above 9600.

As to `CCCCCCC(=O)c1cccc2oc(-c3ccccc3NC(=O)OCc3ccccc3)cc12`, the pIC50 in test [1] was 6.21. Take `CCCCCCC(=O)c1cccc2oc(-c3cc(OC)ccc3OC(=O)N3CCCC3)cc12`: the pIC50 is 8.25 in test [5] and 9.60 in test [1]. In addition, the Ratio IC50 in test [6] came to 22.7. Turning to `CCCC(=O)c1cccc2oc(-c3ccccc3N)cc12`, the pIC50 in test [1] was 4.95.

As for `CCCCCCC(=O)c1cccc2oc(-c3ccccc3NC(=O)OCCCC)cc12`, the pIC50 in test [1] is 5.90.

With `CCCCCCCCC(=O)c1cccc2oc(-c3cc(C)ccc3N)cc12`, the pIC50 in test [1] was 6.13. This pIC50 lies 0.23 log units higher than the previous one. On to `CCCCCCC(=O)c1cccc2oc(-c3cc(OC)ccc3N)cc12`, for which the pIC50 in test [1] is 5.70. On the same count and under the same terms, next, `C=CCOC(=O)Nc1ccccc1-c1cc2c(C(=O)CCCCCC)cccc2o1`: 6.22; `CCCCCCCCC(=O)c1cccc2oc(-c3ccccc3N)cc12`: 6.06. The compound `CCCCCCC(=O)c1cccc2oc(-c3cc(C)ccc3NC(=O)OCCCC)cc12` showed a pIC50 in test [1] of 6.21. Turning to `CCCCCCCCC(=O)c1cccc2oc(-c3cc(OC)ccc3OC(=O)N(C)C)cc12`, the pIC50 in test [5] was 6.62; in test [1] it was 9.72. Moreover, the Ratio IC50 in test [6] came out at 1260.

On to `CN(C)C(=O)C(CCN1CCC(O)(c2ccc(Cl)cc2)CC1)(c1ccccc1)c1ccccc1` [LOPERAMIDE], for which the negative-log IC50 (pIC50) in test [1] was 6.45. With `CCCCCCC(=O)c1cccc2oc(-c3ccccc3NC(=O)OCCCl)cc12`, the negative logarithm of the IC50 (pIC50) in test [5] was below 5.00; in test [1] it was 7.25. Also, in test [6], the Ratio IC50 is above 176. For the compound `CCCC(=O)c1cccc2oc(-c3cc(C)ccc3NC(=O)OCCCl)cc12`, in test [1], the pIC50 was 6.01. With `CCCCCCCCC(=O)c1cccc2oc(-c3cc(OC)ccc3OC(=O)N(CC)CC)cc12`, in test [1], the pIC50 is 8.20. `C=CCOC(=O)Nc1ccc(C)cc1-c1cc2c(C(=O)CCCCCC)cccc2o1`: in test [1], the pIC50 was 6.42. The same measure, in the same setting: next, `CCCCCCC(=O)c1cccc2oc(-c3cc(C)ccc3NC(=O)OCC(CC)CCCC)cc12` (stereo unspecified): 5.37; `CCCCCCOC(=O)Nc1ccc(C)cc1-c1cc2c(C(=O)CCCCCC)cccc2o1`: 6.44. With `CCCCCCCCC(=O)c1cccc2oc(-c3cc(OC)ccc3OC(=O)N(C)CC)cc12`, the pIC50 was 8.40 in test [5] and 9.20 in test [1]. In addition, the Ratio IC50 in test [6] was determined as 6.4. In test [1], `CCCCCCC(=O)c1cccc2oc(-c3cc(C)ccc3N)cc12` had a pIC50 of 6.21.

As for `CCCCCCC(=O)c1cccc2oc(-c3ccccc3NC(=O)OCC(CC)CCCC)cc12` (stereo unspecified), in test [1], the pIC50 is 5.87. On the same count and under the same terms, next, `CCCCCCC(=O)c1cccc2oc(-c3cc(C)ccc3NC(=O)OCC3c4ccccc4-c4ccccc43)cc12`: 5.67; `CCCCCCC(=O)c1cccc2oc(-c3ccccc3N)cc12`: 6.02.

With `CCCCCCC(=O)c1cccc2oc(-c3cc(OC)ccc3OC(=O)N(C)C)cc12`, the pIC50 in test [5] is 7.64; in test [1] it was 9.29. The Ratio IC50 in test [6] turned out to be 44.8. Regarding `CCCCCCOC(=O)Nc1ccccc1-c1cc2c(C(=O)CCCCCC)cccc2o1`, the pIC50 in test [1] was below 5.00. In the case of `CCCCCCC(=O)c1c(C)ccc2oc(-c3cc(OC)ccc3O)cc12`, the pIC50 in test [1] was 8.81.
